Experimental data reported in paper PMC2174028 (The Journal of Cell Biology, 2002).

B1: sPSGL-1: recombinant soluble form of human PSGL-1 comprising the entire extracellular domain, expressed in CHO cells (protein, UniProt Q14242 18-320, looked up)
extracellular domain: LQLWDTWADEAEKALGPLLARDRRQATEYEYLDYDFLPETEPPEMLRNSTDTTPLTGPGTPESTTVEPAARRSTGLDAGGAVTELTTELANMGNLSTDSAAMEIQTTQPAATEAQTTQPVPTEAQTTPLAATEAQTTRLTATEAQTTPLAATEAQTTPPAATEAQTTQPTGLEAQTTAPAAMEAQTTAPAAMEAQTTPPAAMEAQTTQTTAMEAQTTAPEATEAQTTQPTATEAQTTPLAAMEALSTEPSATEALSMEPTTKRGLFIPFSVSSVTHKGIPMAASNLSVNYPVGAPDHISVKQC
modifications: extracellular domain

Legend:
P-selectin [1] = details: ref Leppänen et al., 2000; cited from earlier work
P-selectin [2] = format: binding; details: intermediate or high densities of P-selectin, as a function of wall shear stress

Row | Molecule | Affinity for P-selectin (in words) (P-selectin [1]) | Initial tethering of ligand-coupled microspheres to P-selectin (in words) (P-selectin [2])
1 | CC(=O)N[C@H]1[C@H]([C@H](O)[C@H](O)CO)O[C@@](O[C@H]2[C@@H](O)[C@@H](CO)O[C@@H](O[C@@H]([C@H](O[C@@H]3O[C@@H](C)[C@@H](O)[C@@H](O)[C@@H]3O)[C@H](C=O)NC(C)=O)[C@H](O)CO)[C@@H]2O)(C(=O)O)C[C@@H]1O [sLe^x, sialyl Lewis x] | very low affinity | –
2 | B1 | – | tethered at identical rates
